The source of these data is patent publication US20220289732A1, “HETEROCYCLIC WDR5 INHIBITORS AS ANTI-CANCER COMPOUNDS” (NOVARTIS AG, priority 2019, published 2022).

In assay [1] the test system is MV4-11 cells. Kind of assay: MV4-11 6-day cell growth CTG (CellTiter-Glo) assay. It counts as cell-based. The settings on record: Homo sapiens, MV4-11, 144 h, 6 days, read-out: (c) MLL/WDR5 cell proliferation assay//MLL/WDR5 proliferation MV4:11 Qualified AC50. An outline of the steps: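 Exponentially growing MV4-11 AML cells (RPMI 1640, 10% FBS) seeded at 300 cells/well with 12-point 1:3 compound dilutions, top final concentration 50 μM. Viability read by CellTiter-Glo luminescence after 6 days at 37° C; % inhibition vs DMSO-only wells fitted to dose-response for IC50.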
In general terms: ATP-based viability assays read luminescence as a measure of living cells.

Assay [2] deals with WDR5 (Homo sapiens, UniProt P61964). Kind of assay: WDR5 HTRF binding assay. Conditions: read-out: (a) WDR5 HTRF Pep Val v.1[Inhibitor/IC50]Qualified AC50. An outline of the steps:
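6 nM WDR5 and 20 nM biotin-MLL1 WIN peptide (3762-3773) were incubated with compound (12-point, 3-fold dilutions) in pH 7.5 Hepes/NaCl/DTT buffer for 20 min at rt. Streptavidin-APC plus anti-His-Eu were then added for 1 hr, with HTRF read at 665/615. IC50 was fit from control-normalized activity; the counter assay used 15 nM biotin-PEG-His peptide.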
Background: TR-FRET usually uses a lanthanide donor and a delayed reading to cut background.

The target of assay [3] is wild type MLL1 four-member complex (MLL1-4C) (Homo sapiens, UniProt P61964). Description: MLL1 LC-MS assay (SAH production). It counts as biochemical. Conditions: read-out: (b) MLL LCMS Peptide Val.v.1 Qualified AC50. An outline of the steps:
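MLL1-4C (30 nM final) was preincubated 20 min with compound (3-fold dilutions, 8 or 12 points) and SAM in Tris-HCl pH 8.0 buffer. H3K4me0 peptide (histone H3[1-21]-biotin) was then added, giving final 2.5 μM SAM and 10 μM substrate, and reactions ran 120 min at rt. After TFA/d4-SAH quench, SAH was quantified by LC-MS/MS and IC50 fitted from control-normalised activity.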

In the case of `CNc1nccn1Cc1cc2c(c(-c3ccn[nH]3)c1)CCN([C@@H](C)c1cc(OC)c(F)cn1)C2=O` [Example 63, (S)-2-(1-(5-fluoro-4-methoxypyridin-2-yl)ethyl)-7-((2-(methylamino)-1H-imidazol-1-yl)methyl)-5-(1H-pyrazol-5-yl)-3,4-dihydroisoquinolin-1(2H)-one], the AC50 in assay [1] and in assay [3] was 10 to 1000 nM each time. Further, the IC50 in assay [2] lay in the range of 10 to 1000 nM.

Regarding `CCOc1cc(CN2CCc3c(cc(CCN(C)CC)cc3-c3cn(C)c(=O)cc3C(F)(F)F)C2=O)ncc1C#N` [Example 196, 4-ethoxy-6-((7-(2-(ethyl(methyl)amino)ethyl)-5-(1-methyl-6-oxo-4-(trifluoromethyl)-1,6-dihydropyridin-3-yl)-1-oxo-3,4-dihydroisoquinolin-2(1H)-yl)methyl)nicotinonitrile], the AC50 in assay [1] and in assay [3] was 10 to 1000 nM in each case. In assay [2], the IC50 was 10 to 1000 nM.

Take `CCOc1cc([C@H](C)N2CCc3c(cc(CCN(C)CCOC)cc3-c3ccc(F)nc3C)C2=O)ncc1C#N` [Example 234]: the AC50 in assay [1] and in assay [3] was 10 to 1000 nM in each case. In addition, in assay [2], the IC50 is less than 10 nM.

Turning to `CCOc1cc(CN2CCc3c(cc(CCN(C)CC)cc3-c3cc(C)ncc3C)C2=O)ncc1C#N` [Example 179, 6-((5-(2,5-dimethylpyridin-4-yl)-7-(2-(ethyl(methyl)amino)ethyl)-1-oxo-3,4-dihydroisoquinolin-2(1H)-yl)rnethyl)-4-ethoxynicotinonitrile], the AC50 in assay [1] and in assay [3] was 10 to 1000 nM throughout. In addition, the IC50 in assay [2] was less than 10 nM.

`CCOc1cc(C(C)N2CCc3c(cc(CCN(C)CC)cc3-c3ccc(Cl)nc3C)C2=O)ncc1C#N` (stereo not drawn) [Example 147, 6-(1-(5-(6-chloro-2-methylpyridin-3-yl)-7-(2-(ethyl(methyl)amino)ethyl)-1-oxo-3,4-dihydroisoquinolin-2(1H)-yl)ethyl)-4-ethoxynicotinonitrile]: the AC50 in assay [1] and in assay [3] was 10 to 1000 nM throughout. For the same compound, the IC50 in assay [2] lay in the range of 10 to 1000 nM.

For `CCOc1cc([C@H](C)N2CCc3c(cc(CCN(C)CC)cc3-c3cc(CO)cnc3Cl)C2=O)ncc1F` [Example 120, (S)-5-(2-chloro-5-(hydroxymethyl)pyridin-3-yl)-2-(1-(4-ethoxy-5-fluoropyridin-2-yl)ethyl)-7-(2-(ethyl(methyl)amino)ethyl)-3,4-dihydroisoquinolin-1(2H)-one], the AC50 in assay [1] and in assay [3] was 10 to 1000 nM throughout. Moreover, in assay [2], the IC50 was less than 10 nM.

Take `CCOc1cc(CN2CCc3c(cc(Cn4ccnc4NC)cc3C3CC3)C2=O)nn1C` [Example 87, 5-cyclopropyl-2-((5-ethoxy-1-methyl-1H-pyrazol-3-yl)methyl)-7-((2-(methylamino)-1H-imidazol-1-yl)methyl)-3,4-dihydroisoquinolin-1(2H)-one]: the AC50 in assay [1] and in assay [3] was 10 to 1000 nM throughout. Also, the IC50 in assay [2] lay in the range of 10 to 1000 nM.

Regarding `CCOc1cc([C@H](C)N2CCc3c(cc(CCN(C)CC)cc3-c3cn(C)c(=O)cc3C(F)F)C2=O)ncc1C#N` [Example 149, (S)-6-(1-(5-(4-(difluoromethyl)-1-methyl-6-oxo-1,6-dihydropyridin-3-yl)-7-(2-(ethyl(methyl)amino)ethyl)-1-oxo-3,4-dihydroisoquinolin-2(1H)-yl)ethyl)-4-ethoxynicotinonitrile], the AC50 in assay [1] and in assay [3] was 10 to 1000 nM in each case. For the same compound, the IC50 in assay [2] is 10 to 1000 nM.

With `CCOc1cc([C@H](C)N2CCc3c(cc(CCN4CC[C@@H](O)[C@H]4C)cc3-c3ccc(F)nc3C)C2=O)ncc1C#N` [Example 225, 4-ethoxy-6-((S)-1-(5-(6-fluoro-2-methylpyridin-3-yl)-7-(2-((2R, 3R)-3-hydroxy-2-methylpyrrolidin-1-yl)ethyl)-1-oxo-3,4-dihydroisoquinolin-2(1H)-yl)ethyl)nicotinonitrile], the AC50 in assay [1] and in assay [3] was 10 to 1000 nM each time. In addition, in assay [2], the IC50 is less than 10 nM.

On to `CCOc1cc([C@H](C)N2CCc3c(cc(Cn4ccnc4C)cc3[C@@H]3CCCN3C)C2=O)ncc1C#N` (single isomer, unassigned) [Example 266], for which the AC50 in assay [1] and in assay [3] was 1000 to 25000 nM throughout. Also, the IC50 in assay [2] lay in the range of 1000 to 25000 nM.

On to `CCOc1cc(C(C)N2CCc3c(cc(CCN(C)CC)cc3C(O)C(C)(C)C)C2=O)ncc1C#N` (stereo not drawn) [compound 257], for which the AC50 in assay [1] and in assay [3] was 10 to 1000 nM each time. The IC50 in assay [2] is 10 to 1000 nM.

For the compound `CCOc1cc([C@H](C)N2CCc3c(cc(CCN(C)CC)cc3-c3cn(C)c(=O)cc3Cl)C2=O)ncc1C#N` [Example 175, (S)-6-(1-(5-(4-chloro-1-methyl-6-oxo-1,6-dihydropyridin-3-yl)-7-(2-(ethyl(methyl)amino)ethyl)-1-oxo-3,4-dihydroisoquinolin-2(1H)-yl)ethyl)-4-ethoxynicotinonitrile], the AC50 in assay [1] and in assay [3] was 10 to 1000 nM throughout. The IC50 in assay [2] is less than 10 nM.

`CCOc1cc([C@H](C)N2CCc3c(cc(CCN(C)CC(C)O)cc3-c3cc(C)cnc3C)C2=O)ncc1C#N` (stereo partly drawn) [Example 246]: the AC50 in assay [1] and in assay [3] was 10 to 1000 nM in each case. Also, the IC50 in assay [2] lay in the range of 10 to 1000 nM.

Turning to `CCOc1cc(C(C)N2CCc3c(cc(Cn4ccnc4C)cc3-c3cn(C)nc3C)C2=O)ncc1C#N` (racemic) [Example 261, 6-(1-(5-(1,3-dimethyl-1H-pyrazol-4-yl)-7-((2-methyl-1H-imidazol-1-yl)methyl)-1-oxo-3,4-dihydroisoquinolin-2(1H)-yl)ethyl)-4-ethoxynicotinonitrile], the AC50 in assay [1] and in assay [3] was 10 to 1000 nM each time. For the same compound, the IC50 in assay [2] is less than 10 nM.

With `CCOc1cc([C@H](C)N2CCc3c(cc(Cn4ccnc4NC)cc3N3CCCC3)C2=O)ncc1F` (single isomer, unassigned) [Example 88], the AC50 in assay [1] and in assay [3] was 10 to 1000 nM in each case. Moreover, in assay [2], the IC50 was less than 10 nM.

Regarding `CCOc1cc([C@H](C)N2CCc3c(cc(Cn4ccnc4C)cc3-n3nc(C)nc3C)C2=O)ncc1C#N` (single isomer, unassigned) [Example 265], the AC50 in assay [1] and in assay [3] was 10 to 1000 nM each time. The IC50 in assay [2] was less than 10 nM.

Turning to `CCOc1cc([C@H](C)N2CCc3c(cc(CCN(C)CC)cc3-c3cc(N)cnc3C(F)(F)F)C2=O)ncc1C#N` [Example 138, (S)-6-(1-(5-(5-amino-2-(trifluoromethyl)pyridin-3-yl)-7-(2-(ethyl(methyl)amino)ethyl)-1-oxo-3,4-dihydroisoquinolin-2(1H)-yl)ethyl)-4-ethoxynicotinonitrile], the AC50 in assay [1] and in assay [3] was 10 to 1000 nM throughout. In assay [2], the IC50 was less than 10 nM.

Consider `CCOc1cc(C(C)N2CCc3c(cc(CCN(C)CC)cc3-c3ccnc(F)c3C)C2=O)ncc1C#N` (stereo not drawn) [Example 141, 4-ethoxy-6-(1-(7-(2-(ethyl(methyl)amino)ethyl)-5-(2-fluoro-3-methylpyridin-4-yl)-1-oxo-3,4-dihydroisoquinolin-2(1H)-yl)ethyl)nicotinonitrile], for which the AC50 in assay [1] and in assay [3] was 10 to 1000 nM throughout. Besides, in assay [2], the IC50 fell in the range of 10 to 1000 nM.

As to `CCOc1cc(CN2CCc3c(cc(CCN(C)CC)cc3-c3ccc(F)nc3C)C2=O)ncc1F` [Example 132, 2-((4-ethoxy-5-fluoropyridin-2-yl)methyl)-7-(2-(ethyl(methyl)amino)ethyl)-5-(6-fluoro-2-methylpyridin-3-yl)-3,4-dihydroisoquinolin-1(2H)-one], the AC50 in assay [1] and in assay [3] was 10 to 1000 nM each time. For the same compound, the IC50 in assay [2] is less than 10 nM.

As for `CCOc1cc([C@H](C)N2CCc3c(cc(CCN(C)CCO)cc3-c3cc(F)cnc3C(F)(F)F)C2=O)ncc1C#N` [Example 228, (S)-4-ethoxy-6-(1-(5-(5-fluoro-2-(trifluoromethyl)pyridin-3-yl)-7-(2-((2-hydroxyethyl)(methyl)amino)ethyl)-1-oxo-3,4-dihydroisoquinolin-2(1H)-yl)ethyl)nicotinonitrile], the AC50 in assay [1] and in assay [3] was 10 to 1000 nM in each case. Also, the IC50 in assay [2] was less than 10 nM.

As for `CCOc1cc([C@H](C)N2CCc3c(cc(CCN(C)CC)cc3-c3cc(C(C)=O)cnc3C)C2=O)ncc1C#N` [Example 185, (S)-6-(1-(5-(5-acetyl-2-methylpyridin-3-yl)-7-(2-(ethyl(methyl)amino)ethyl)-1-oxo-3,4-dihydroisoquinolin-2(1H)-yl)ethyl)-4-ethoxynicotinonitrile], the AC50 in assay [1] and in assay [3] was 10 to 1000 nM each time. Besides, the IC50 in assay [2] was less than 10 nM.

On to `CCOc1cc([C@H](C)N2CCc3c(cc(CCN4CC[C@H]4CO)cc3-c3ccc(F)nc3C)C2=O)ncc1C#N` [Example 243], for which the AC50 in assay [1] and in assay [3] was 10 to 1000 nM throughout. Besides, the IC50 in assay [2] lay within 10 to 1000 nM.

`CCOc1cc(CN2CCc3c(cc(Cn4ccnc4C)cc3-c3cn(C)c(=O)cc3C(F)F)C2=O)ncc1C#N` [Example 299]: the AC50 in assay [1] and in assay [3] was 10 to 1000 nM each time. Besides, the IC50 in assay [2] is less than 10 nM.
